# Data taken from US6465618B1, “Mitogen activated protein kinase (MAPK) kinase” (Asahi Kasei Kabushikiki Kaisha, priority 1997, dated 2002).
# Columns and labels:
# SEK1/MKK4 = test: Activation of SEK1/MKK4 by TNF-α in KB and U937 cells (immune complex kinase assay); type: cell-based; details: KB cells 20 ng/ml, U937 cells 100 ng/ml human TNF-α; 5 to 180 minutes
# Protocol: (§1) KB cells were cultured in Dulbecco's modified Eagles medium (DMEM) containing 10% bovine serum, and the cultured cells were stimulated with 20 ng/ml human TNF-α (manufactured and sold by BECTON DICKINSON AND COMPANY, USA, under the brand of Collaborative Biomedical Products). U937 cells were cultured in RPMI 1640 medium containing 10% fetal bovine serum, and the cultured cells were stimulated with 100 ng/ml human TNF-α. The cells were sampled from each cell culture 5, 15, 30, 60, 120 and 180 minutes after the start of the stimulation to thereby prepare cell extracts. The cell extracts were prepared as follows. The sampled cells were suspended in 0.7 M NaCl solution and washed once with ice-cold HEPES-buffered saline. […]
# (§2) To 200 μl of the cell extract was added 3 μl of an antiserum (anti-MKK7 antiserum and anti-SEK1/MKK4 antiserum were separately used), and a reaction for preparing an immune complex was allowed to proceed while incubating at 4° C. for 1 hour. […] The phosphorylation of c-Jun was detected by autoradiography and used as an index for the activation of MKK7 or SEK1/MKK4 by TNF-α.
# MKK7 = test: Activation of MKK7 by TNF-α in KB and U937 cells (immune complex kinase assay); type: cell-based; details: KB cells 20 ng/ml, U937 cells 100 ng/ml human TNF-α; 5 to 180 minutes
# Protocol: as §1, §2
substance,measurement,setting,value
TNF-α,activation of SEK1/MKK4 by TNF-α (phosphorylation of c-Jun as index),SEK1/MKK4,did not activate
same,activation of MKK7 by TNF-α (phosphorylation of c-Jun as index),MKK7,activated
